Reference: paper PMC10387993, “New pyrimidine-N-β-D-glucosides: synthesis, biological evaluation, and molecular docking investigations” (Turkish Journal of Chemistry, 2023)
Values after ≈ are worked out from the molar mass of the structure shown. Where two headings read alike, the source gives them in different places.

How the values were obtained:
Format in all cases: cell-based
S. aureus ATCC 25923 = test: Microdilution MIC assay; details: Staphylococcus aureus, ATCC25923, 24 h, S. aureus ATCC 25923, 24 h at 35 °C; read-out: MIC
Protocol: (§1) MIC values of the compounds against bacterial strains were determined on the basis of a microwell dilution method. […] […]. Growth of microorganisms was determined visually after incubation for 24 h at 35 °C. The lowest concentration at which there was no visible growth (turbidity) was taken as the MIC.

S. mutans ATCC 35668 = test: Microdilution MIC assay; details: S. mutans ATCC 35668, 24 h at 35 °C
Protocol: as §1

[1] = test system: S. aureus MSSA ATCC 29213; test: Microdilution MIC assay; details: S. aureus MSSA ATCC 29213, 24 h at 35 °C
Protocol: as §1

[2] = test system: A. actinomycetemcomitans ATCC 33384; test: Microdilution MIC assay; details: Aggregatibacter actinomycetemcomitans, ATCC33384; A. actinomycetemcomitans ATCC 33384, 24 h at 35 °C
Protocol: as §1

[3] = test system: P. aeruginosa AGME ATCC 27853; test: Microdilution MIC assay; details: Pseudomonas aeruginosa, ATCC27853; P. aeruginosa AGME ATCC 27853, 24 h at 35 °C
Protocol: as §1

[4] = test system: S. aureus MRSA ATCC 46300; test: Microdilution MIC assay; details: Staphylococcus aureus; S. aureus MRSA ATCC 46300, 24 h at 35 °C; read-out: MIC
Protocol: as §1

[5] = test system: E. faecalis VRE ATCC 19433; test: Microdilution MIC assay; details: Enterococcus faecalis; E. faecalis VRE ATCC 19433, 24 h at 35 °C
Protocol: as §1

E. coli ATCC 25922 = test: Microdilution MIC assay; details: Escherichia coli, ATCC25922; E. coli ATCC 25922, 24 h at 35 °C
Protocol: as §1

S. gordonii NCTC 7870 = test: Microdilution MIC assay; details: Streptococcus gordonii, NCTC7870; S. gordonii NCTC 7870, 24 h at 35 °C
Protocol: as §1

E. coli ESBL ATCC 35218 = test: Microdilution MIC assay; details: Escherichia coli, ATCC35218; E. coli ESBL ATCC 35218, 24 h at 35 °C
Protocol: as §1

Hep3B = test: cells; details: Homo sapiens; for GI50 / IC50 / IC (total growth inhibition): MTT; for IC50: read-out: IC50; for IC (total growth inhibition): read-out: TGI; for LC50 (concentration causing 50% net cell loss relative to time zero): read-out: LC50
Protocol: (§2) The cell lines were cultured in a cell medium (Dulbecco’s modified eagle’s or RPMI 1640) enriched with 10% (v/v) fetal bovine serum and 2% (v/v) Penicillin-Streptomycin (10,000 U/mL). First, old medium was removed out of the flask when the cells reached approximately 80% confluence. Next, cells were taken from the flasks surface using trypsin-EDTA solution and then subjected to centrifugation. Following, the cell pellet was suspended with fresh media and was inoculated into wells.
(§3) A cell suspension containing approximately 1 × 10^4 cells in 100 μL was seeded into the wells of 96-well culture plates. […]. The final volume of the wells was set to 200 μL by medium. Cell proliferation assay was evaluated by MTT (yellow tetrazolium MTT (3-(4,5-dimethylthiazolyl-2)-2,5-diphenyltetrazolium bromide) methods. Briefly, an MTT stock solution (5 mg of MTT/mL of distilled water) was filtered and kept at −20 °C until use. The cells were exposed to an MTT reagent (consisting of one parts of MTT stock solutions and nine parts of fresh RPMI 1640 without phenol red) for 4 h to form MTT formazan dye followed by the dye dissolved in DMSO with Sorenson’s buffer for 30 min at room temperature and then the plate was measured at 560 nm, with 690 nm as a reference interval, using a microplate reader. Each experiment was repeated at least three times for each cell line.
(§4) IC50 value is a concentration that inhibits half of the cells in vitro. The half maximal inhibitory concentration (IC50) of the test and control compounds was calculated using XLfit5 or excel spreadsheet and represent in μM at 95% confidence intervals. The proliferation assay results were expressed as the percent inhibition according to the following formula: % Inhibition = [1 - (Absorbance of Treatments /Absorbance of DMSO) × 100]. Three dose response parameters (GI50, TGI, LC50) were calculated according to the following formulas using the absorbance measurements of time zero (Tz), control growth (C), and test growth in the presence of drug (Ti). Growth inhibition of 50% (GI50) was calculated from [(Ti-Tz)/(C-Tz)] × 100 = 50, which is the drug concentration resulting in a 50% reduction in the net growth increase in control cells during the drug incubation. The drug concentration resulting in total growth inhibition (TGI) was calculated from Ti = Tz. The LC50 indicating a net loss of cells following treatment was calculated from [(Ti-Tz)/Tz] × 100 = −50.

HT29 = test: cells; details: Homo sapiens; for LC50 (concentration giving 50% net cell loss relative to time zero): HT-29, read-out: LC50; for GI50 / IC50 / IC (total growth inhibition): HT-29, HT29, MTT; for IC50: read-out: IC50; for IC (total growth inhibition): read-out: TGI
Protocol: as §2, §3, §4

MCF7 = test: cells; details: Homo sapiens; for LC50 (concentration causing 50% net cell loss relative to time zero): MCF7, read-out: LC50; for GI50 / IC50 / IC (total growth inhibition): MCF7, MTT; for IC50: read-out: IC50; for IC (total growth inhibition): read-out: TGI
Protocol: as §2, §3, §4

HeLa = test: cells; details: Homo sapiens; for GI50 / IC50 / IC (total growth inhibition): MTT; for IC50: read-out: IC50; for IC (total growth inhibition): read-out: TGI; for LC50 (concentration causing 50% net cell loss): read-out: LC50
Protocol: as §2, §3, §4

A549 = test: cells; details: Homo sapiens; for LC50 (concentration causing 50% net cell loss): A549, read-out: LC50; for GI50 / IC50 / IC (total growth inhibition): A549, MTT; for IC50: read-out: IC50; for IC (total growth inhibition): read-out: TGI
Protocol: as §2, §3, §4

C6 (Rat brain glioma) = test: cells; details: Rattus norvegicus; for LC50 (concentration giving 50% net cell loss relative to time zero): read-out: LC50; for GI50 / IC50 / IC (total growth inhibition): C6, MTT; for IC50: read-out: IC50; for IC (total growth inhibition): read-out: TGI
Protocol: as §2, §3, §4

normal FL cells = test: cells; details: FL normal cells, MTT; for IC50: read-out: IC50; for IC (total growth inhibition): read-out: TGI
Protocol: as §2, §3, §4

[6] = Streptococcus mutans, ATCC35668, 24 h, read-out: MIC
[7] = Staphylococcus aureus, 24 h, read-out: MIC

| SMILES | MIC (S. aureus ATCC 25923) [µg/mL] | MIC (S. mutans ATCC 35668; [6]) [µg/mL] | MIC [1, 7] [µg/mL] | MIC [2] [µg/mL] | MIC [3] [µg/mL] | MIC [4] [µg/mL] | MIC [5] [µg/mL] | MIC (E. coli ATCC 25922) [µg/mL] | MIC (S. gordonii NCTC 7870) [µg/mL] | MIC (E. coli ESBL ATCC 35218) [µg/mL] | GI50 (Hep3B) [µg/mL] | IC50 (Hep3B) [µg/mL] | IC (total growth inhibition) (Hep3B) [µg/mL] | LC50 (concentration causing 50% net cell loss relative to time zero) (Hep3B) [µg/mL] | LC50 (concentration giving 50% net cell loss relative to time zero) (HT29) [µg/mL] | GI50 (HT29) [µg/mL] | IC50 (HT29) [µg/mL] | IC (total growth inhibition) (HT29) [µg/mL] | LC50 (concentration causing 50% net cell loss relative to time zero) (MCF7) [µg/mL] | GI50 (MCF7) [µg/mL] | further results |
| --- | --- | --- | --- | --- | --- | --- | --- | --- | --- | --- | --- | --- | --- | --- | --- | --- | --- | --- | --- | --- | --- |
| CC(=O)OC[C@H]1O[C@@H](Nc2nc(-c3cccnc3)cc(-c3ccccc3C)n2)[C@H](OC(C)=O)[C@@H](OC(C)=O)[C@@H]1OC(C)=O [Compound 11, 2,3,4,6-tetra-O-acetyl-N-[4-(2-methylphenyl)-6-pyridin-3-ylpyrimidin-2-yl]-β-D-glucopyranosylamine] | > 1000 | 250 (≈ 422 µM) | 62.5 to 125 (≈ 105 to 211 µM) | > 1000 | > 1000 | 1000 (≈ 1690 µM) | > 1000 | > 1000 | > 1000 | > 1000 | 4.25 (≈ 7.17 µM) | > 500 | > 500 | > 500 | > 500 | 2.75 (≈ 4.64 µM) | > 500 | > 500 | > 500 | 4.46 (≈ 7.53 µM) | MIC [1]: 125 µg/mL (≈ 211 µM); IC50 (MCF7): > 500 µg/mL; IC (total growth inhibition) (MCF7): > 500 µg/mL; GI50 (HeLa): > 500 µg/mL; IC50 (HeLa): > 500 µg/mL; IC (total growth inhibition) (HeLa): > 500 µg/mL; LC50 (concentration causing 50% net cell loss) (HeLa): > 500 µg/mL; LC50 (concentration causing 50% net cell loss) (A549): > 500 µg/mL; GI50 (A549): > 500 µg/mL; IC50 (A549): > 500 µg/mL; IC (total growth inhibition) (A549): > 500 µg/mL; LC50 (concentration giving 50% net cell loss relative to time zero) (C6 (Rat brain glioma)): 578 µg/mL (≈ 975 µM); GI50 (C6 (Rat brain glioma)): 2.1 µg/mL (≈ 3.54 µM); IC50 (C6 (Rat brain glioma)): 21.9 µg/mL (≈ 36.9 µM); IC (total growth inhibition) (C6 (Rat brain glioma)): 8.83 µg/mL; GI50 (normal FL cells): 11.2 µg/mL (≈ 18.8 µM); IC50 (normal FL cells): > 500 µg/mL; IC (total growth inhibition) (normal FL cells): > 500 µg/mL |
| CC(=O)OC[C@H]1O[C@@H](Nc2nc(-c3ccc(C)cc3)cc(-c3ccccn3)n2)[C@H](OC(C)=O)[C@@H](OC(C)=O)[C@@H]1OC(C)=O [Compound 16, 2,3,4,6-tetra-O-acetyl-N-[4-(4-methylphenyl)-6-pyridin-2-ylpyrimidin-2-yl]-β-D-glucopyranosylamine] | > 1000 | 62.5 to 125 (≈ 105 to 211 µM) | 1000 (≈ 1690 µM) | > 1000 | > 1000 | > 1000 | 1000 (≈ 1690 µM) | > 1000 | > 1000 | > 1000 | 1.99 (≈ 3.36 µM) | 7.18 (≈ 12.1 µM) | 7.33 | 326 (≈ 550 µM) | 122 (≈ 205 µM) | 1.47 (≈ 2.48 µM) | 3.26 (≈ 5.5 µM) | 3.88 | 495 (≈ 835 µM) | 1.41 (≈ 2.38 µM) | MIC (S. mutans ATCC 35668): 125 µg/mL (≈ 211 µM); IC50 (MCF7): 4.12 µg/mL (≈ 6.95 µM); IC (total growth inhibition) (MCF7): 4.29 µg/mL; GI50 (HeLa): 1.49 µg/mL (≈ 2.51 µM); IC50 (HeLa): 9.13 µg/mL (≈ 15.4 µM); IC (total growth inhibition) (HeLa): 3.28 µg/mL; LC50 (concentration causing 50% net cell loss) (HeLa): 34.1 µg/mL (≈ 57.6 µM); LC50 (concentration causing 50% net cell loss) (A549): > 500 µg/mL; GI50 (A549): 23.8 µg/mL (≈ 40.1 µM); IC50 (A549): > 500 µg/mL; IC (total growth inhibition) (A549): > 500 µg/mL; LC50 (concentration giving 50% net cell loss relative to time zero) (C6 (Rat brain glioma)): 22.9 µg/mL (≈ 38.6 µM); GI50 (C6 (Rat brain glioma)): 1.4 µg/mL (≈ 2.36 µM); IC50 (C6 (Rat brain glioma)): 4.38 µg/mL (≈ 7.39 µM); IC (total growth inhibition) (C6 (Rat brain glioma)): 2.8 µg/mL; GI50 (normal FL cells): 1.71 µg/mL (≈ 2.89 µM); IC50 (normal FL cells): 6.31 µg/mL (≈ 10.6 µM); IC (total growth inhibition) (normal FL cells): 6.44 µg/mL |
